Biological target: T1, LAC3 (Trametes sp. C30, UniProt Q6TH77)
T1 construct: lac3 cDNA in pYES-DEST52 under GAL1 promoter, secreted by Saccharomyces cerevisiae W303-1A; 501 aa, calc
T1 sequence (Q6TH77 24-524): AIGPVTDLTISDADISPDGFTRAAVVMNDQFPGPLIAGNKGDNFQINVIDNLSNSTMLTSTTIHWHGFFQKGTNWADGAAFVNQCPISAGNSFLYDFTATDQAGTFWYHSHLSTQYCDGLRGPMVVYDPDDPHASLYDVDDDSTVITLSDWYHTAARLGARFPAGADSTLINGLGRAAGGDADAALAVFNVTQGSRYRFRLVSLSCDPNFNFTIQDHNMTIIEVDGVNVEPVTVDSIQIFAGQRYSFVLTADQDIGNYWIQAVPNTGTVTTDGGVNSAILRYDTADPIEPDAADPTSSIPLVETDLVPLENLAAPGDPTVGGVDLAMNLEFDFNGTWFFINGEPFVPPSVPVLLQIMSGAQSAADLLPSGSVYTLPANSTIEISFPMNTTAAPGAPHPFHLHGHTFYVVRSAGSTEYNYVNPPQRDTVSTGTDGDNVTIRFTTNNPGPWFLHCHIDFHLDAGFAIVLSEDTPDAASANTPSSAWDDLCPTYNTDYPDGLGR
Test: brown halo on agar plate
Format: cell-based
Conditions: secreted recombinant enzyme, selective medium SGal URA

COc1ccccc1O [2-methoxyphenol]
brown halo on agar plate: brown coloration resulting from the oxidation of the substrate 2-methoxyphenol by laccases
